{"source": "paper PMC12542638", "about": "“Cystathionine β-synthase TtCbs1 from Tetrahymena thermophila catalyzes the synthesis of CdS quantum dots for methyl orange decolorization” (Applied and Environmental Microbiology, 2025)", "molecular_target": "T1, His-TtCbs1 (TtCbs1, cystathionine β-synthase) (Tetrahymena thermophila, UniProt I7M350)", "T1 construct": "gene TTHERM_00558300", "T1 sequence (I7M350 1-500)": "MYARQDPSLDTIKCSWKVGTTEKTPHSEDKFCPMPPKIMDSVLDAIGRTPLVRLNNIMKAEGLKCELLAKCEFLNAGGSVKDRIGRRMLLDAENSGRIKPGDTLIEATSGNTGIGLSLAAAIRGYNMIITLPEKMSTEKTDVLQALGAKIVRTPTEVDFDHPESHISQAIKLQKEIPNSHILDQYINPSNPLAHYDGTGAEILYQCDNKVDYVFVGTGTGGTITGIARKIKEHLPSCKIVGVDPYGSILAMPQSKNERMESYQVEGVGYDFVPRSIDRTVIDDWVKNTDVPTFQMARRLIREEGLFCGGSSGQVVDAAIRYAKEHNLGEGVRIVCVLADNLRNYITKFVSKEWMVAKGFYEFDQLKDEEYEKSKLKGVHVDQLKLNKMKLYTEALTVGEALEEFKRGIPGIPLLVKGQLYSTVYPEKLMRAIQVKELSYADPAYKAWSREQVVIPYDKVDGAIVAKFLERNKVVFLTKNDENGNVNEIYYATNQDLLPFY", "assay": "CdS quantum dot formation from enzymatically released H2S, UV-Vis and fluorescence", "assay_type": "biochemical", "conditions": "50 mM Tris-HCl pH 8.5, 37 °C, 0.1 mg/mL enzyme, 4 mM cysteine, 0.5 mM CdCl2; no signal without enzyme", "data": [{"compound": "N[C@@H](CS)C(=O)O", "note": "[L-cysteine]", "values": [{"measurement": "CdS quantum dot formation from enzymatically released H2S, UV-Vis and fluorescen", "value": "Cysteine, as a thiol compound, serves as a substrate for His-TtCbs1 to produce H2S"}]}]}
